Measurements from patent publication EP1144423B1, “BIS-TERPYRIDINE-PLATINUM(II) COMPLEXES” (ISIS INNOVATION LIMITED, priority 1999, dated 2000).
pIC50: −log10 of the molar value. Like-named read-outs stand apart in the source and are kept apart here.

Columns and labels:
cell line SKOV3 [1] = conditions: reported in WO 97/27202; cited from earlier work
[2] = tested on: cisplatin resistant CH1 cell line (CH1cis^R); conditions: 96 h exposure, value reported in WO97/27202; cited from earlier work
poly[d(A-T)2] = conditions: second binding mode, circular dichroism; cited from earlier work
[3] = tested on: doxirubicin resistant CH1 cell line; type: cell-based, human; conditions: doxirubicin resistant CH1 cell line versus CH1
Experimental: (§1) The IC50 values of the bis-2,2':6',2"-terpyridine Pt(II) complexes (1, Z=trans-CH=CH-, Y=H), (1, Z=trans-CH=CH-, Y=Cl) and (1, Z=trans-CH=CH-, Y=4-Br.C6H4), were reported in PCT/GB97/00218 (WO97/27202) and referred to as A14, I14 and Q14 respectively. They were evaluated for in vitro cytotoxicity against five human ovarian carcinoma cell lines which included two selected for resistance to cisplatin (Ch1cis^R and A2780cis^R) and one for resistance to doxorubicin (Ch1dox^R). The compounds were exposed to cells for 96 h and growth inhibition assessed using the sulforhodamine B protein staining assay.

[4] = tested on: cisplatin resistant CH1 cell line (CH1cis^R); experiment: in vitro cytotoxicity, sulforhodamine B growth inhibition assay; type: cell-based, human; conditions: 96 h exposure
Experimental: as §1

CH1 cell line = experiment: as above; type: cell-based, human; conditions: 96 h exposure
Experimental: as §1

[5] = maximum tolerated dose, single intraperitoneal injection; type: in vivo; conditions: for loss of body weight: 25, 50 and 100 mg/kg i.p., body weight 2 weeks post-dosing; for deaths: single intraperitoneal injection at 25, 50 and 100 mg/kg; for signs of induced toxicity: single intraperitoneal injection
Experimental: The maximum tolerated dose was determined for A15(4NO3) and I15(4NO3).
Drugs were administered as a single intraperitoneal injection at 25, 50 and 100 mg/kg. Animals were observed daily for signs of induced toxicity and body weight determined 2 weeks post-dosing.

cell line A2780 = experiment: in vitro cytotoxicity, sulforhodamine B growth inhibition assay; type: cell-based, human; conditions: 96 h exposure
Experimental: as §1

cell line SKOV3 [6] = experiment: as above; type: cell-based, human
Experimental: as §1

[7] = tested on: A2780 cisplatin resistant cell line (A2780cis^R); experiment: as above; type: cell-based, human
Experimental: as §1

calf-thymus (ct)-DNA = conditions: literature values; cited from earlier work
DNA = conditions: intercalation into DNA, literature value [4]; cited from earlier work

4,4'-vinylenedipyridine bis[2,2':6',2"-terpyridine platinum (II)] [A14 (4BF4)]
antitumour activity compared with cisplatin (cell line SKOV3 [1]): more effective than cisplatin
pIC50 [2]: > 6.00

Cc1cc[n+]([Pt-2]23[n+]4ccccc4-c4cccc([n+]42)-c2cccc[n+]23)cc1.F[B-](F)(F)F.F[B-](F)(F)F [4-Picoline-2,2':6',2"-terpyridine-platinum(II) bis-tetrafluoroborate]
equilibrium binding constant (poly[d(A-T)2]): about 1 x10^6 M^-1

C(C#Cc1cc[n+]([Pt-2]23[n+]4ccccc4-c4cccc([n+]42)-c2cccc[n+]23)cc1)#Cc1cc[n+]([Pt-2]23[n+]4ccccc4-c4cccc([n+]42)-c2cccc[n+]23)cc1.O=[N+]([O-])[O-].O=[N+]([O-])[O-].O=[N+]([O-])[O-].O=[N+]([O-])[O-] [A15, 1,4-Bis(4-pyridyl)butadiyne bis[(2,2':6',2"-terpyridine)platinum(II)] tetranitrate]
resistance factors (RF) [3]: 0.6
pIC50 [4]: > 6.00
pIC50 (CH1 cell line): > 6.00
loss of body weight [5]: no loss of body weight
deaths [5]: no deaths
signs of induced toxicity ([5]; 100 mg/kg): no sign of toxicity or body weight loss

Clc1cc2[n+]3c(c1)-c1cccc[n+]1[Pt-2]3([n+]1ccc(C#CC#Cc3cc[n+]([Pt-2]45[n+]6ccccc6-c6cc(Cl)cc([n+]64)-c4cccc[n+]45)cc3)cc1)[n+]1ccccc1-2.O=[N+]([O-])[O-].O=[N+]([O-])[O-].O=[N+]([O-])[O-].O=[N+]([O-])[O-] [I15, 1,4-Bis(4-pyridyl)butadiyne bis[(4'-chloro-2,2':6'2"-terpyridine)platinum(II)] tetranitrate]
pIC50 (cell line A2780): > 6.00
antitumour activity compared with cisplatin (cell line SKOV3 [6]): more effective than cisplatin
times more effective than cisplatin ([7]; A2780cis^R cell line): 13 times
resistance factors (RF) ([7]; A2780cis^R versus A2780): 1.1
loss of body weight [5]: no loss of body weight
deaths [5]: no deaths
signs of induced toxicity ([5]; 50 mg/kg): not at 50 mg/kg
signs of induced toxicity ([5]; 100 mg/kg): some indication of toxicity (mild ataxia/twitching)

Clc1cc2[n+]3c(c1)-c1cccc[n+]1[Pt-2]3([n+]1ccc(-c3cc[n+]([Pt-2]45[n+]6ccccc6-c6cc(Cl)cc([n+]64)-c4cccc[n+]45)cc3)cc1)[n+]1ccccc1-2.O=[N+]([O-])[O-].O=[N+]([O-])[O-].O=[N+]([O-])[O-].O=[N+]([O-])[O-] [I18, 4,4'-Dipyridine bis[(4'-chloro-2,2':6',2"-terpyridine)platinum(II)] tetranitrate]
pIC50 [4]: > 6.00
antitumour activity compared with cisplatin (cell line SKOV3 [6]): more effective than cisplatin
pIC50 (CH1 cell line): > 6.00

O=[N+]([O-])[O-].O=[N+]([O-])[O-].O=[N+]([O-])[O-].O=[N+]([O-])[O-].O=[N+]([O-])[O-].O=[N+]([O-])[O-].[NH3+][Pt-2]([NH3+])([n+]1ccc(-c2cc[n+]([Pt-2]34[n+]5ccccc5-c5cc(Cl)cc([n+]53)-c3cccc[n+]34)cc2)cc1)[n+]1ccc(-c2cc[n+]([Pt-2]34[n+]5ccccc5-c5cc(Cl)cc([n+]53)-c3cccc[n+]34)cc2)cc1 [I20, trans-Diamminebis(4,4'-dipyridyl)platinum(II) bis[(4'-chloro-2,2':6',2"-terpyridine)platinum(II)] hexanitrate]
resistance factors (RF) [3]: 0.8
pIC50 [4]: > 6.00
pIC50 (CH1 cell line): > 6.00

[Cl-].[Cl-].[Pt+2].c1ccc(-c2cccc(-c3ccccn3)n2)nc1 [chloroplatinum complex]
binding association constants with ct-DNA (calf-thymus (ct)-DNA): essentially the same binding constant

F[B-](F)(F)F.[OH][Pt-2]12[n+]3ccccc3-c3cccc([n+]31)-c1cccc[n+]12 [hydroxy-platinum complex]
binding constant (DNA): approximately 7 x 10^4 M^-1

hydroxyethanethiolate-2,2':6',2"-terpyridine-platinum(II) [hydroxy-ethanethiolate complex]
binding association constants with ct-DNA (calf-thymus (ct)-DNA): 83000 M⁻¹
